The structures appear in SMILES notation.

One data set concerns the target T1, MDR1 (Homo sapiens, UniProt P08183).
T1 construct: expressed in transfected cells
Kind of data set: MDR1 membrane permeability test. It is filed as in vitro ADME. The settings on record: pH 7.4, efflux ratio (ER), Papp B to A / A to B, human MDR1-expressing LLC-PK1 cells, read-out: MDR1 substrate screening 1 μM (MDRSUB1)/Ratio (NUMBER). The method in brief: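 Human MDR1-expressing LLC-PK1 cells were grown for 3 days on 96-well polyethylene terephthalate Transwell supports (0.4 μm pores, 0.143 cm^2) seeded at 3.45×10^4 cells/well. After a 30 min preincubation in M199 medium with 10 mmol/L HEPES and 1% BSA (pH 7.4), drug was added apically or basolaterally. After 1 hr at 37° C, the opposite side was sampled and analyzed by LC-MS/MS. Efflux ratio was calculated from Papp B to A versus A to B.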

In a further data set the test system is Male SD rats. The experiment in a line: Rat defecation experiment. It is filed as in vivo. As to conditions: mean±standard error. As for the experimental part: Rat Defecation Experiment
Male SD rats (5-6 weeks old) were used after an acclimation period for about 1 week. A test drug (1 mg/kg, 3 mg/kg, or 10 mg/kg) was suspended in 0.5% methylcellulose solution and orally administered at a volume of 5 mL/kg, and the number of feces 2 hr later was counted. Only 0.5% methylcellulose was administered to a solvent administration group.

T1 sequence (P08183 whole entry): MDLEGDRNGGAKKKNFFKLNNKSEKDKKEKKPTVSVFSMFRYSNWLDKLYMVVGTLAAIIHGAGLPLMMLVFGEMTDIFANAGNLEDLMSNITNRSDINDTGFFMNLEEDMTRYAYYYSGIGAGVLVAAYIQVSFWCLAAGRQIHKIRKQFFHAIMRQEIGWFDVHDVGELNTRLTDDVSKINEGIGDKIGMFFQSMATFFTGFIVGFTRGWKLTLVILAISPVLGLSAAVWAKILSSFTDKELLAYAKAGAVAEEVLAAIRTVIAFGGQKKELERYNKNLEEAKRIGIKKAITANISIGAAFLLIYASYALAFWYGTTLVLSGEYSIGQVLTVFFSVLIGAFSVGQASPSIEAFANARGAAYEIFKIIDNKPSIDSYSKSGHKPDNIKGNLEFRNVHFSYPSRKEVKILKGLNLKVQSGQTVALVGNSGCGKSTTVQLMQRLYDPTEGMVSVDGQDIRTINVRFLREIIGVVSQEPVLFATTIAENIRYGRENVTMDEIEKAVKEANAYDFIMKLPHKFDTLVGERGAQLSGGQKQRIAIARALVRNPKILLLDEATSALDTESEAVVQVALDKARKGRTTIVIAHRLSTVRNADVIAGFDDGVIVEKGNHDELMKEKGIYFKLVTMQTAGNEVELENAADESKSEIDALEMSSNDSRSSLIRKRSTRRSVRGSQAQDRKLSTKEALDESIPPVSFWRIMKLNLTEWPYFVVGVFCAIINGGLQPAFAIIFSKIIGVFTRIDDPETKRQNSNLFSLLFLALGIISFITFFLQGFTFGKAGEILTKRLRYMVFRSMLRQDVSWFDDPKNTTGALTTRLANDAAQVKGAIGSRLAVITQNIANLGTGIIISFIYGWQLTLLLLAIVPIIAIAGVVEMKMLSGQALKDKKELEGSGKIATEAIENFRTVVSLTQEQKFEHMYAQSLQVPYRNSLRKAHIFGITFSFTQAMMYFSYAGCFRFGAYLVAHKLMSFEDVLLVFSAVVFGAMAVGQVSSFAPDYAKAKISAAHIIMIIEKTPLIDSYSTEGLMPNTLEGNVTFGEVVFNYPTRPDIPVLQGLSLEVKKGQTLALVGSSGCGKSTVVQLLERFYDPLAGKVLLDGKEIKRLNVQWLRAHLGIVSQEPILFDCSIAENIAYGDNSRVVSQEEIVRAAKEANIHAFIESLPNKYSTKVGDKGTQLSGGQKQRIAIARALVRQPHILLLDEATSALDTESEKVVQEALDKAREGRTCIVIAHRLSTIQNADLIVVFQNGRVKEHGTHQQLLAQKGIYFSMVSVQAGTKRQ

On to `Cc1c(Cc2ccc(-c3cnn(C)c3)nc2)cc2c(=O)n([C@H]3CCOC[C@@H]3O)cnc2c1C` [Example 6, 1,5-anhydro-2,3-dideoxy-3-(7,8-dimethyl-6-((6-(1-methyl-1H-pyrazol-4-yl)pyridin-3-yl)methyl)-4-oxoquinazolin-3(4H)-yl)-L-threo-pentitol], for which the efflux ratio at 1 hr, 1 μM on MDR1 stood at 11. On the same count and under the same terms, the figure for `CNC(=O)c1ccc(Cc2cc3c(=O)n([C@H]4CCOC[C@@H]4O)nnc3c(Cl)c2C)cc1F` [Example 19, 1,5-anhydro-3-(8-chloro-6-(3-fluoro-4-(methylcarbamoyl)benzyl)-7-methyl-4-oxo-1,2,3-benzotriazin-3(4H)-yl)-2,3-dideoxy-L-threo-pentitol] is 4.6.

As to `COCCNC(=O)c1ccc(Cc2cc3c(=O)n([C@H]4CCOC[C@@H]4O)cnc3c(C)c2C)cc1F` [Example 66, 1,5-anhydro-2,3-dideoxy-3-(6-(3-fluoro-4-((2-methoxyethyl)carbamoyl)benzyl)-7,8-dimethyl-4-oxoquinazolin-3(4H)-yl)-L-threo-pentitol], the “number of feces 2 hr later” value in the data set with Male SD rats (1 mg/kg orally) is reported as 9.9 ± 1.0. In addition, the efflux ratio at 1 hr, 1 μM on MDR1 turned out to be 7. As to `Cc1c(Cc2ccc(-c3cn(C)nn3)nc2)cc2c(=O)n([C@H]3CCOC[C@@H]3O)cnc2c1C` [Example 2, 1,5-anhydro-2,3-dideoxy-3-(7,8-dimethyl-6-((6-(1-methyl-1H-1,2,3-triazol-4-yl)pyridin-3-yl)methyl)-4-oxoquinazolin-3(4H)-yl)-L-threo-pentitol], the efflux ratio at 1 hr, 1 μM at MDR1 worked out at 18.

As to `Cc1c(Cc2ccc(C(=O)NC[C@H]3CCCO3)c(F)c2)cc2c(=O)n([C@H]3CCOC[C@@H]3O)cnc2c1C` [Example 81, 1,5-anhydro-2,3-dideoxy-3-(6-(3-fluoro-4-(((2R)-tetrahydrofuran-2-ylmethyl)carbamoyl)benzyl)-7,8-dimethyl-4-oxoquinazolin-3(4H)-yl)-L-threo-pentitol], the “number of feces 2 hr later” value with Male SD rats (1 mg/kg orally) is reported as 6.9 ± 1.1; in the data set on Male SD rats (3 mg/kg orally), 7.0 ± 0.8; with Male SD rats (10 mg/kg orally) it was 11.5 ± 1.1. Also, at MDR1, the efflux ratio at 1 hr, 1 μM turned out to be 8.6. Take `Cc1nn(C)cc1-c1ccc(Cc2cc3c(=O)n([C@H]4CCOC[C@@H]4O)cnc3c(C)c2C)cn1` [Example 5, 1,5-anhydro-2,3-dideoxy-3-(6-((6-(1,3-dimethyl-1H-pyrazol-4-yl)pyridin-3-yl)methyl)-7,8-dimethyl-4-oxoquinazolin-3(4H)-yl)-L-threo-pentitol]: the efflux ratio at 1 hr, 1 μM on MDR1 was 15. On to `CNC(=O)c1ccc(Cc2cc3c(=O)n([C@H]4CCOC[C@@H]4O)cnc3c(C)c2C)cc1F` [Example 3, 1,5-anhydro-2,3-dideoxy-3-(6-(3-fluoro-4-(methylcarbamoyl)benzyl)-7,8-dimethyl-4-oxoquinazolin-3(4H)-yl)-L-threo-pentitol], for which the “number of feces 2 hr later” value in the data set with Male SD rats (1 mg/kg orally) turned out to be 7.4 ± 0.7; in the data set with Male SD rats (3 mg/kg orally), 7.8 ± 1.4. At MDR1, the efflux ratio at 1 hr, 1 μM came to 6.

Values taken from patent US11560372B2, “Heterocyclic compounds useful as modulators of acetylcholine receptors” (TAKEDA PHARMACEUTICAL COMPANY LIMITED, priority 2017, dated 2023).
